Consider 33 molecules from patent publication US8871756B2 (Hoffmann-La Roche Inc., priority 2011, dated 2014).

Structures can show the parent of a compound that is named as a salt.

This assay relates to RSV Long strain. Briefly: Viral cytopathic effect (CPE) assay, anti-RSV activity. Format: cell-based, Respiratory Syncytial Virus. The settings on record: human respiratory syncytial virus, 144 h, RSV Long strain (ATCC); cell viability after 6 days, Cell Counting kit-8. The method in brief:
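Cells (6×10^3/well, DMEM with 10% FBS) were infected next day with RSV Long strain, at a dose giving approximately 80–90% CPE, alongside serial half-log compound dilutions. Viability was read after 6 days by CCK-8 absorbance at 450 nm (reference 630 nm), and EC50 was derived from it.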
For orientation: Cytopathic effects are the visible damage that an infection or toxin causes in cultured cells.
Broadly, the EC50 is the concentration giving half of the maximal effect. Lower therefore signals an effect from little substance. As for `CC(=O)NCCCNc1cc(N2CCS(=O)(=O)c3ccccc3C2)nc2ccc(C)cc12` [Example 63-3, N-(3-{[2-(1,1-Dioxido-2,3-dihydro-1,4-benzothiazepin-4(5H)-yl)-6-methylquinolin-4-yl]amino}propyl)acetamide], it took 0.007 µM to reach a half-maximal effect (EC50). Then `NCC1(CNc2nc(N3CCS(=O)(=O)c4ccccc4C3)nc3ccc(CO)cc23)COC1` [Example 109-2, [4-({[3-(Aminomethyl)oxetan-3-yl]methyl}amino)-2-(1,1-dioxido-2,3-dihydro-1,4-benzothiazepin-4(5H)-yl)quinazolin-6-yl]methanol], with 0.0015 µM.

For `Cc1ccc2nc(N3CCS(=O)(=O)c4ccccc4C3)cc(OCCN)c2c1` [Example 97, 2-{[2-(1,1-Dioxido-2,3-dihydro-1,4-benzothiazepin-4(5H)-yl)-6-methylquinolin-4-yl]oxy}ethanamine], the response was half-maximal at 0.177 µM (EC50).

`Cc1ccc2nc(N3CCS(=O)(=O)c4ccccc4C3)cc(NCC3(CN)CC(F)(F)C3)c2c1` [Example 3-12, N-{[1-(Aminomethyl)-3,3-difluorocyclobutyl]methyl}-2-(1,1-dioxido-2,3-dihydro-1,4-benzothiazepin-4(5H)-yl)-6-methylquinolin-4-amine] displayed an EC50 of 1.65 µM.

Molecule `Cc1ccc2nc(N3CCS(=O)(=O)c4ccccc4C3)cc(NCC3CN=C(N)O3)c2c1` (stereo not drawn) [Example 38-1, N-[(2-Amino-4,5-dihydro-1,3-oxazol-5-yl)methyl]-2-(1,1-dioxido-2,3-dihydro-1,4-benzothiazepin-4(5H)-yl)-6-methylquinolin-4-amine] gave an EC50 of 0.01 µM. As for `Cc1ccc2nc(N3CCS(=O)(=O)c4ccccc4C3)cc(Nc3ccc(N)cc3)c2c1` [Example 15-2, N-[2-(1,1-Dioxido-2,3-dihydro-1,4-benzothiazepin-4(5H)-yl)-6-methylquinolin-4-yl]benzene-1,4-diamine], it took 7.99 µM to reach a half-maximal effect (EC50). The same measure for `CC(=O)Nc1cc(N2CCS(=O)(=O)c3ccccc3C2)nc2ccc(C)cc12` [Example 3-60, N-[2-(1,1-Dioxido-2,3-dihydro-1,4-benzothiazepin-4(5H)-yl)-6-methylquinolin-4-yl]acetamide]: 0.617 µM; for `[2H]C([2H])([2H])c1ccc2nc(N3CCS(=O)(=O)c4ccccc4C3)cc(NCC3(CN)COC3)c2c1` [Example 3-65, N-{[3-(Aminomethyl)oxetan-3-yl]methyl}-2-(1,1-dioxido-2,3-dihydro-1,4-benzothiazepin-4(5H)-yl)-6-trideuteriomethylquinolin-4-amine]: 0.002 µM.

`Cc1ccc2nc(N3CCS(=O)(=O)c4ccccc4C3)cc(NCCNCCO)c2c1` [Example 3-42, 2-[(2-{[2-(1,1-Dioxido-2,3-dihydro-1,4-benzothiazepin-4(5H)-yl)-6-methylquinolin-4-yl]amino}ethyl)amino]ethanol] displayed an EC50 of 0.007 µM. Then `Cc1ccc2nc(N3CCS(=O)(=O)c4ccccc4C3)cc(NCC(O)CN)c2c1` (stereo not drawn) [Example 9-7, 1-Amino-3-{[2-(1,1-dioxido-2,3-dihydro-1,4-benzothiazepin-4(5H)-yl)-6-methylquinolin-4-yl]amino}propan-2-ol], with 0.002 µM. The same measure for `Cc1ccc2nc(N3CCS(=O)(=O)c4ccccc4C3)cc(NC3CCN(C4COC4)C3)c2c1` (stereo not drawn) [Example 44-1, 2-(1,1-Dioxido-2,3-dihydro-1,4-benzothiazepin-4(5H)-yl)-6-methyl-N-[1-(oxetan-3-yl)pyrrolidin-3-yl]quinolin-4-amine]: 0.084 µM; for `Cc1ccc2nc(N3CCS(=O)(=O)c4ccccc4C3)cc(NC(CN)(CO)CO)c2c1` [Example 72, 2-(Aminomethyl)-2-{[2-(1,1-dioxido-2,3-dihydro-1,4-benzothiazepin-4(5H)-yl)-6-methylquinolin-4-yl]amino}propane-1,3-diol]: 0.002 µM.

The molecule `Cc1ccc2nc(N3CCCc4ccccc4C3)cc(NCCN)c2c1` [Example 118-3, N-[6-Methyl-2-(1,3,4,5-tetrahydro-2H-2-benzazepin-2-yl)quinolin-4-yl]ethane-1,2 diamine] came in with an EC50 of 0.063 µM.

Molecule `Cc1ccc2nc(N3CCS(=O)(=O)c4ccccc4C3)nc(NCC(F)CN)c2c1` (stereo not drawn) [Example 56-5, N-[2-(1,1-Dioxido-2,3-dihydro-1,4-benzothiazepin-4(5H)-yl)-6-methylquinazolin-4-yl]-2-fluoropropane-1,3-diamine] came in with an EC50 of 0.022 µM. The same measure for `Cc1ccc2nc(N3CCSc4ccccc4C3)cc(NCC3(N)COC3)c2c1` [Example 4-3, N-[(3-Aminooxetan-3-yl)methyl]-2-(2,3-dihydro-1,4-benzothiazepin-4(5 H)-yl)-6-methylquinolin-4-amine]: 0.026 µM; for `Cc1ccc2nc(N3CCS(=O)(=O)c4ccccc4C3)cc(NCC(N)=O)c2c1` [Example 36-5, N^˜2^˜-[2-(1,1-Dioxido-2,3-dihydro-1,4-benzothiazepin-4(5H)-yl)-6-methylquinolin-4-yl]glycinamide]: 0.026 µM; for `Cc1ccc2nc(N3CCS(=O)(=O)c4ccccc4C3)cc(N3C[C@H](O)[C@@H](O)C3)c2c1` [Example 3-34, (3S,4S)-1-[2-(1,1-Dioxido-2,3-dihydro-1,4-benzothiazepin-4(5H)-yl)-6-methylquinolin-4-yl]pyrrolidine-3,4-diol]: 0.085 µM. The same measure for `NCCNc1cc(N2CCCc3ccc(O)cc3C2)nc2ccccc12` [Example 118-2, 2-{4-[(2-Aminoethyl)amino]quinolin-2-yl}-2,3,4,5-tetrahydro-1H-2-benzazepin-8-ol]: 0.048 µM. Then `Cc1ccc2nc(N3CCS(=O)(=O)c4ccc(O)cc4C3)cc(NCC3(N)COC3)c2c1` [Example 66, 4-(4-{[(3-Aminooxetan-3-yl)methyl]amino}-6-methylquinolin-2-yl)-2,3,4,5-tetrahydro-1,4-benzothiazepin-7-ol 1,1-dioxide], with 0.002 µM. As to `COc1ccc2c(c1)CN(c1cc(N)c3cc(C)ccc3n1)CCS2(=O)=O` [Example 20-2, 2-(7-Methoxy-1,1-dioxido-2,3-dihydro-1,4-benzothiazepin-4(5H)-yl)-6-methylquinolin-4-amine], it took 0.31 µM to reach a half-maximal effect (EC50).

The molecule `Cc1ccc2nc(N3CCS(=O)(=O)c4ccccc4C3)cc(NCCN3CCCCC3)c2c1` [Example 9-6, 2-(1,1-Dioxido-2,3-dihydro-1,4-benzothiazepin-4(5H)-yl)-6-methyl-N-[2-(piperidin-1-yl)ethyl]quinolin-4-amine] displayed an EC50 of 0.275 µM. In the case of `Cc1ccc2nc(N3CCS(=O)(=O)c4ccccc4C3)cc(NCC3(N)COC3)c2c1F` [Example 3-25, N-[(3-Aminooxetan-3-yl)methyl]-2-(1,1-dioxido-2,3-dihydro-1,4-benzothiazepin-4(5H)-yl)-5-fluoro-6-methylquinolin-4-amine], it took 0.022 µM to reach a half-maximal effect (EC50). Then `Cc1ccc2nc(N3CCS(=O)(=O)c4ccccc4C3)cc(NCC3(N)CCCCC3)c2c1` [Example 2-11, N-[(1-Aminocyclohexyl)methyl]-2-(1,1-dioxido-2,3-dihydro-1,4-benzothiazepin-4(5H)-yl)-6-methylquinolin-4-amine], with 0.008 µM; and `Cc1ccc2nc(N3CCC(F)(F)c4ccccc4C3)cc(NC3CCCC(N)C3)c2c1` (stereo not drawn) [Example 111-7, N-[2-(5,5-Difluoro-1,3,4,5-tetrahydro-2H-2-benzazepin-2-yl)-6-methylquinolin-4-yl]cyclohexane-1,3-diamine], with 0.873 µM; and `Cc1ccc2nc(N3CCC(F)(F)c4ccccc4C3)cc(N3CCCNCC3)c2c1` [Example 111-2, 2-[4-(1,4-Diazepan-1-yl)-6-methylquinolin-2-yl]-5,5-difluoro-2,3,4,5-tetrahydro-1H-2-benzazepine], with 1.34 µM.

Take `CNc1cc(N2CCS(=O)(=O)c3ccccc3C2)nc2ccc(C)cc12` [Example 3-33, 2-(1,1-Dioxido-2,3-dihydro-1,4-benzothiazepin-4(5H)-yl)-N,6-dimethylquinolin-4-amine trifluoroacetate]: the EC50 is 0.426 µM.

`Cc1ccc2nc(N3CCS(=O)(=O)c4ccccc4C3)nc(NCCN)c2c1` [Example 90, N-[2-(1,1-Dioxido-2,3-dihydro-1,4-benzothiazepin-4(5H)-yl)-6-methylquinazolin-4-yl]ethane-1,2-diamine]: the response was half-maximal at 0.005 µM (EC50). In the case of `Cc1ccc2nc(N3CCC(F)(F)c4ccccc4C3)nc(NCC3(CN)CSC3)c2c1` [Example 114-2, N-{[3-(Aminomethyl)thietan-3-yl]methyl}-2-(5,5-difluoro-1,3,4,5-tetrahydro-2H-2-benzazepin-2-yl)-6-methylquinazolin-4-amine], the EC50 amounted to 0.975 µM. For the molecule `NCCNc1cc(N2CCS(=O)(=O)c3ccccc3C2)nc2ccc(N)cc12` [Example 85, N^˜4^˜-(2-Aminoethyl)-2-(1,1-dioxido-2,3-dihydro-1,4-benzothiazepin-4(5H)-yl)quinoline-4,6-diamine], the EC50 was found to be 0.008 µM. Molecule `N[C@@H]1CN(c2cc(N3CCS(=O)(=O)c4ccccc4C3)nc3ccc(Cl)cc23)C[C@H]1O` (relative stereo) [Example 19-6, trans-4-Amino-1-[6-chloro-2-(1,1-dioxido-2,3-dihydro-1,4-benzothiazepin-4(5 H)-yl)quinolin-4-yl]pyrrolidin-3-ol] returned an EC50 of 0.054 µM.

On to `CC(=O)Nc1nc(N2CCS(=O)(=O)c3ccccc3C2)nc2ccc(C)cc12` [Example 63-4, N-[2-(1,1-Dioxido-2,3-dihydro-1,4-benzothiazepin-4(5H)-yl)-6-methylquinazolin-4-yl]acetamide], for which a half-maximal effect (EC50) was put at 0.797 µM. Then `Cc1ccc2nc(N3CCS(=O)(=O)c4ccccc4C3)cc(NC[C@@H](N)CO)c2c1` [Example 37-2, (2R)-2-Amino-3-{[2-(1,1-dioxido-2,3-dihydro-1,4-benzothiazepin-4(5H)-yl)-6-methylquinolin-4-yl]amino}propan-1-ol], with 0.043 µM; and `CCNCCNc1cc(N2CCS(=O)(=O)c3ccccc3C2)nc2ccc(C)cc12` [Example 3-37, N-[2-(1,1-Dioxido-2,3-dihydro-1,4-benzothiazepin-4(5H)-yl)-6-methylquinolin-4-yl]-N′-ethylethane-1,2-diamine], with 0.017 µM.
